Experimental data: US7235583B1, “Fatty acid-anticancer conjugates and uses thereof” (Luitpold Pharmaceuticals, Inc.,, priority 1999, dated 2007)

Assays:
Format in all cases: in vivo
[1] = tested on: mouse lung tumor line M (Madison) 109; assay: Taxoprexin and paclitaxel against M 109 lung carcinoma in mice, treatment from day 4 (tumor about 30 mg); details: days 4 through 8, tumor about 30 mg at start
Description: Syngeneic mice were injected with mouse lung tumor line M (Madison) 109 sub-cutaneously in the flank. […] Both drugs were dissolved in 10% cremophor EL/10% ethanol/80% saline. Tumor volume was estimated from tumor width and length. […] (FIG. 1)

[2] = tested on: mouse lung tumor line M (Madison) 109; assay: Taxoprexin and paclitaxel against M 109 lung carcinoma in mice, treatment from day 5 (tumors 300 mg); details: tumors 300 mg at start
Description: Syngeneic mice were injected with mouse lung tumor line M (Madison) 109 sub-cutaneously in the flank. […] Both drugs were dissolved in 10% cremophor EL/10% ethanol/80% saline. Tumor volume was estimated from tumor width and length. […] (FIG. 2)

[3] = tested on: human NCI-H522 lung tumor; assay: Response of human NCI-H522 lung tumor in nude mice; details: day 15 to 19 after implantation
Description: The tumors were implanted sub-cutaneously. Tumor mass was determined by calculation from tumor length and width. The drugs were dissolved in 12.5% cremophor EL/12.5% ethanol/75% saline and delivered i.v. into the tail vein, once a day for 5 days, from day 15 to 19 after tumor implantation. […] (FIG. 3)

[4] = Plasma and tumor concentrations of paclitaxel in mice bearing M 109 or M 5076 tumors; details: for time for which levels of paclitaxel in tumors remain stable: tumors treated with the named drug
Description: The drug was dissolved in 10% cremophor EL/10% ethanol/80% saline. Mice were sacrificed and tumors immediately excised as a function of time after injecting the drug. Tumor tissue was homogenized and paclitaxel extracted. […] Blood was collected at the same time intervals and the amount of paclitaxel determined. […] Each data point is the mean of three measurements (n=3); the error bar is one standard deviation.

[5] = tested on: human HCT colon tumor; assay: Cure of human HCT colon tumor in mice; details: HCT is a paclitaxel resistant tumor
[6] = Dose comparisons (MTD) of taxoprexin and paclitaxel in various species; details: mice, rats and dogs
Description: Calculation of MTD in animals may be based on a number of physiological parameters, such as death, particular toxicities, drug induced weight loss. Using death as an endpoint, the MTD may be the dose given test animals in which each member of the test group survived. Using toxicity as an endpoint, the MTD may be the dose at which moderate but not severe toxicity is observed. Using weight loss as an endpoint, the MTD may be the dose above which a certain percent change in body weight is induced.

[7] = paclitaxel 20 mg/kg/day x 5 days i.v. bolus from day 5

Structure (SMILES) | retarded tumor growth (duration) ([1]; paclitaxel 20 mg/kg/day x 5 days i.v. bolus) | LCK [2, 7] | retarded tumor growth (duration) [2, 7] | mice with all measurable tumors eliminated ([3]; 20 mg/kg/day x 5 days i.v.) | t½ in tumor ([4]; paclitaxel in the same tumor system) [h] | time for which levels of paclitaxel in tumors remain stable [4] | mice cured of tumor [5] | mice with all measurable tumors completely eliminated ([1]; taxoprexin 120 mg/kg/day x 5 days i.v. bolus) | mice with all measurable tumors completely eliminated ([2]; taxoprexin 80 mg/kg/day x 5 days i.v. bolus from day 5) | mice with all measurable tumors completely eliminated (C/T) ([2]; taxoprexin 120 mg/kg/day x 5 days i.v. bolus from day 5) | mice with all measurable tumors eliminated ([3]; 50 mg/kg/day x 5 days i.v.) | plasma concentration of paclitaxel derived from taxoprexin ([4]; after 24 hours, i.v. bolus 50 mg/kg taxoprexin) [µM] | tumor concentration of paclitaxel derived from taxoprexin ([4]; after 24 hours, i.v. bolus 50 mg/kg taxoprexin, M109 or M5076 tumors) | toxicity compared with paclitaxel [6]
CC(=O)O[C@H]1C(=O)[C@@]2(C)[C@H]([C@H](OC(=O)c3ccccc3)[C@]3(O)C[C@H](OC(=O)[C@H](O)[C@@H](NC(=O)c4ccccc4)c4ccccc4)C(C)=C1C3(C)C)[C@]1(OC(C)=O)CO[C@@H]1C[C@@H]2O [paclitaxel, reference compound] | about four days | 1.0 | about four days | 10/10 | < 8 | less than 8 hours | 0/8 |  |  |  |  |  |  | 
CC/C=C\C/C=C\C/C=C\C/C=C\C/C=C\C/C=C\CCC(=O)O[C@@H](C(=O)O[C@H]1C[C@@]2(O)[C@@H](OC(=O)c3ccccc3)[C@@H]3[C@]4(OC(C)=O)CO[C@@H]4C[C@H](O)[C@@]3(C)C(=O)[C@H](OC(C)=O)C(=C1C)C2(C)C)[C@@H](NC(=O)c1ccccc1)c1ccccc1 [taxoprexin] |  |  |  |  |  | 24 h | 3/8 | eight out of eight | four out of seven | 7/8 | 10/10 | 0.07 | about 3 μM | less toxic
